Measurements from patent US8318424B2, “High-throughput RNA structure analysis” (The University of North Carolina at Chapel Hill, priority 2006, dated 2012).

Experiments:
[1] = Reagent hydrolysis followed by UV absorbance of the aminobenzoate product; assay type: physicochemical
Protocol: One (1) μL NMIA in DMSO was added to the (+) NMIA tube and 1 μL neat DMSO was added to the (−) NMIA tube. The tubes were then mixed well. The reaction was incubated for 5 NMIA hydrolysis half-lives. To estimate the NMIA half-life between 15° C. and 75° C., the following equation was used: half life(minutes)=360×exp[−0.102×temperature(° C.)]. […] Thus, at 37° C., the reaction was incubated for about 45 minutes.
(§1) Hydrolysis was followed by adding (1.5 mM NMIA or 2.0 mM 1M7 in 300 μL DMSO) reagent to 1.1× buffer (2.7 mL, 6.7 mM MgCl2, 111 mM NaCl, 111 mM HEPES (pH 8.0)) equilibrated at 37° C. in a cuvette. Pseudo-first-order rates were obtained by monitoring the absorbance of the hydrolysis product (at 360 nm for 2-methylaminobenzoate and 430 nm for 2-methylamino-4-nitrobenzoate). Rates of adduct formation for [^32P]-labeled pAp-ethyl (10,000 cpm/μL) were obtained by adding 10% (v/v) reagent (5 mM final NMIA or 1M7 in DMSO) to 1.1× reaction buffer, quenching the reaction with 1 vol 250 mM dithiothreitol, resolving by gel electrophoresis (30% polyacrylamide; 29:1 acrylamide:bisacrylamide; 0.4 mm×28.5 cm×23 cm; 30 W; 45 minutes), and quantifying by phosphorimaging. Reaction rates were obtained using an equation that accounts for parallel reaction of NMIA or 1M7 by 2′-O-adduct formation (kadduct) and by hydrolysis (khydrolysis): fraction product=1−exp[(kadduct[reagent]/khydrolysis)(e^−(khydrolysis)t−1)]. Synthesis of Bacillus subtilis RNase P RNA
The reagent hydrolysis was monitored as the increase in UV absorbance of the aminobenzoate products. […] In contrast, NMIA required over 20 minutes to react to completion (FIG. 5).

[2] = test system: pAp-ethyl; assay: 2′-O-adduct formation with [32P]-labeled pAp-ethyl; settings: for change in rate of reaction with pAp-ethyl from 0 to 20 mM Mg2+: 0 to 20 mM Mg2+ (FIG. 6)
Protocol: as §1
The ability of each compound to react with 3′-phosphoethyl-5′-adenosine monophosphate (pAp-ethyl) was then evaluated. pAp-ethyl contains a 2′-hydroxyl and 3′-phosphodiester monoanion.

[3] = target: T1, NCp7-RNA interactions (Human immunodeficiency virus type 1 group M subtype B, UniProt P12493); assay: AT-2 treatment of HIV-1 virions analyzed by hSHAPE; settings: in virio compared with AT-2 treated virions
T1 construct: expressed in transfected cells; host or cells: 293T cells cotransfected with pNL4-3 and pHCMV-G; the protein sits in the released virus particles
Source text: The most prominent protein ligand for genomic RNA in mature HIV virions is the nucleocapsid protein. The nucleocapsid protein (NCp7) contains two highly conserved zinc-knuckle motifs comprised of cysteine and histidine residues that coordinate zinc ions and bind preferentially to guanosine. These compact motifs are flanked by positively charged residues that interact at adjacent RNA elements. Zinc ejecting agents such as 2,2′-dithioldipyridine (or AT-2) quantitatively disrupt interactions between the zinc ion and its cysteine ligands to compromise NCp7-RNA interactions, but leave the surface of the virus particle intact. Nucleocapsid-RNA interactions were disrupted in situ by treating virions with AT-2. The resulting genomic RNA was analyzed using hSHAPE.
Aldrithiol-2 (AT-2, systematic name 2,2′-dithiodipyridine; 0.5 M in DMSO, 2.0 mL) or DMSO (2.0 mL) was added to 1.0 L virus supernatant and incubated overnight at 4° C. Virus particles from the (+) and (−) AT-2 experiments were pelleted separately by centrifugation (110,000 g, 4° C., 1.5 hours) through a 20% (w/v) sucrose cushion in phosphate buffered saline. Pellets were resuspended in 1.0 mL NMIA reaction buffer (50 mM Hepes (pH 8), 200 mM NaCl, 0.1 mM EDTA, and 10% fetal bovine serum). […]

[4] = Solubility of reagent stock in DMSO; assay type: physicochemical; settings: organic solvent or mixture; 10× stock in DMSO; read-out: stock concentration limit due to solubility of the reagent
Protocol: The concentration of this solution can vary with RNA length. For RNA reads of 100, 200 and 300 nucleotides, 10×NMIA concentrations of 130, 65 and 30 mM, can be used.

[5] = test system: retroviral membrane; assay: NMIA modification of genomic RNA inside HIV-1 viral particles
Protocol: The structure of HIV-1 genomic RNA inside infectious virions was analyzed by treating viral particles with NMIA and then extracting and processing the modified RNA (the in virio state). Numerous reproducible differences between the ex virio and in virio states were observed that report virion-specific RNA structures and RNA-protein interactions.
Concentrated samples of either purified viral particles or particles treated with AT-2 (500 μL) in NMIA reaction buffer were treated with NMIA (50 μL, 100 mM) or neat DMSO (50 μL) for 50 minutes at 37° C. The virus particle production, AT-2 treatment, and NMIA modification steps were performed as a single continuous process and without intermediate storage steps.

SMILES	time until reaction is complete ([1]; 37° C., pH 8.0 buffer)	half-life at 0.2 mM ([1]; HEPES buffer with 10% DMSO, 37° C., pH 8.0 buffer, 10% DMSO) [min]	dependence of hydrolysis on Mg2+ concentration ([1]; control experiments)	increase in rates of hydrolysis and of 2′-hydroxyl acylation relative to NMIA [2] [fold]	change in rate of reaction with pAp-ethyl from 0 to 20 mM Mg2+ [2]	rate of reaction with pAp-ethyl, compared with NMIA ([2]; 5 mM reagent)	specificity of the effect of AT-2 treatment on SHAPE reactivity of genomic RNA [3]	time required to react to completion ([1]; 37° C., pH 8.0 buffer)	half-life ([1]; pH 8, 37° C., from half life = 360×exp[−0.102×temperature], read-out: NMIA hydrolysis half-life) [min]	solubility [4] [mM]	passage across the retroviral membrane [5]
Cn1c(=O)oc(=O)c2ccc([N+](=O)[O-])cc21 [1M7, 1-methyl-7-nitroisatoic anhydride]	about 70 seconds	0.233	independent of Mg^2+ concentration	20	negligible	significantly more rapidly	–	–	–	–	–
c1ccc(SSc2ccccn2)nc1 [AT-2, 2,2′-dithiodipyridine]	–	–	–	–	–	–	highly specific	–	–	–	–
Cn1c(=O)oc(=O)c2ccccc21 [NMIA, N-methylisatoic anhydride]	–	–	–	–	greater than 2 fold	–	–	over 20 minutes	8.3	≤ 130	readily crosses the retroviral membrane
